Test results as given in ChEMBL document CHEMBL1155722, “Biological and mechanistic activities of xanthorrizol and 4-(1',5'-dimethylhex-4'-enyl)-2-methylphenol isolated from Iostephane heterophylla” (2001).
≈ marks a conversion by molar mass, not a printed value.

Assays:
[1] = system: Staphylococcus aureus; experiment: Antimicrobial activity against methicillin-sensitive Staphylococcus aureus 375 after 18 hrs by microbroth dilution method; assay type: functional; conditions: Staphylococcus aureus, 375, 18 h
[2] = system: Klebsiella pneumoniae; experiment: Antimicrobial activity against Klebsiella pneumoniae 425 after 18 hrs by microbroth dilution method; assay type: functional; conditions: Klebsiella pneumoniae, 425, 18 h
[3] = system: Staphylococcus aureus; experiment: Antimicrobial activity against Staphylococcus aureus ATCC 25923 after 18 hrs by microbroth dilution method; assay type: functional; conditions: ATCC 25923, 18 h
[4] = system: Enterococcus faecium; experiment: Antimicrobial activity against Enterococcus faecium 436 after 18 hrs by microbroth dilution method; assay type: functional; conditions: Enterococcus faecium, 436, 18 h
[5] = system: Escherichia coli; experiment: Inhibition of DNA synthesis in Escherichia coli assessed as incorporation of [3H]thymidine at 8 ug/mL by LKB Betaplate scintillation counter relative to control; assay type: functional; set-up: scale not given: the % may be the effect or the level left
[6] = system: Escherichia coli; experiment: Inhibition of DNA synthesis in Escherichia coli assessed as incorporation of [3H]thymidine at 32 ug/mL by LKB Betaplate scintillation counter relative to control; assay type: functional; set-up: scale not given: the % may be the effect or the level left
[7] = system: Bacillus subtilis; experiment: Antimicrobial activity against Bacillus subtilis 327 after 18 hrs by microbroth dilution method; assay type: functional; conditions: Bacillus subtilis, 327, 18 h
[8] = system: Escherichia coli; experiment: Inhibition of protein synthesis in Escherichia coli assessed as incorporation of [3H]amino acid at 64 ug/mL by LKB Betaplate scintillation counter relative to control; assay type: functional; set-up: scale not given: the % may be the effect or the level left
[9] = system: Escherichia coli; experiment: Inhibition of protein synthesis in Escherichia coli assessed as incorporation of [3H]amino acid at 8 ug/mL by LKB Betaplate scintillation counter relative to control; assay type: functional; set-up: scale not given: the % may be the effect or the level left
[10] = system: Escherichia coli; experiment: Inhibition of DNA synthesis in Escherichia coli assessed as incorporation of [3H]thymidine at 64 ug/mL by LKB Betaplate scintillation counter relative to control; assay type: functional; set-up: scale not given: the % may be the effect or the level left
[11] = system: Escherichia coli; experiment: Antimicrobial activity against Escherichia coli ATCC 25922 after 18 hrs by microbroth dilution method; assay type: functional; conditions: ATCC 25922, 18 h
[12] = system: Escherichia coli; experiment: Inhibition of protein synthesis in Escherichia coli assessed as incorporation of [3H]amino acid at 16 ug/mL by LKB Betaplate scintillation counter relative to control; assay type: functional; set-up: scale not given: the % may be the effect or the level left
[13] = system: Escherichia coli; experiment: Inhibition of RNA synthesis in Escherichia coli assessed as incorporation of [3H]uridine at 8 ug/mL by LKB Betaplate scintillation counter relative to control; assay type: functional; set-up: scale not given: the % may be the effect or the level left
[14] = system: Escherichia coli; experiment: Inhibition of DNA synthesis in Escherichia coli assessed as incorporation of [3H]thymidine at 16 ug/mL by LKB Betaplate scintillation counter relative to control; assay type: functional; set-up: scale not given: the % may be the effect or the level left
[15] = system: Escherichia coli; experiment: Antimicrobial activity against Escherichia coli 389 after 18 hrs by microbroth dilution method; assay type: functional; conditions: Escherichia coli, 389, 18 h
[16] = system: Escherichia coli; experiment: Inhibition of RNA synthesis in Escherichia coli assessed as incorporation of [3H]uridine at 128 ug/mL by LKB Betaplate scintillation counter relative to control; assay type: functional; set-up: scale not given: the % may be the effect or the level left
[17] = system: Escherichia coli; experiment: Inhibition of protein synthesis in Escherichia coli assessed as incorporation of [3H]amino acid at 128 ug/mL by LKB Betaplate scintillation counter relative to control; assay type: functional; set-up: scale not given: the % may be the effect or the level left
[18] = system: Escherichia coli; experiment: Inhibition of RNA synthesis in Escherichia coli assessed as incorporation of [3H]uridine at 64 ug/mL by LKB Betaplate scintillation counter relative to control; assay type: functional; set-up: scale not given: the % may be the effect or the level left
[19] = system: Escherichia coli; experiment: Inhibition of DNA synthesis in Escherichia coli assessed as incorporation of [3H]thymidine at 128 ug/mL by LKB Betaplate scintillation counter relative to control; assay type: functional; set-up: scale not given: the % may be the effect or the level left
[20] = system: Staphylococcus aureus; experiment: Antimicrobial activity against methicillin-resistant Staphylococcus aureus 310 after 18 hrs by microbroth dilution method; assay type: functional; conditions: Staphylococcus aureus, 310, 18 h
[21] = system: Escherichia coli; experiment: Antimicrobial activity against Escherichia coli 442 after 18 hrs by microbroth dilution method; assay type: functional; conditions: Escherichia coli, 442, 18 h
[22] = system: Pseudomonas aeruginosa; experiment: Antimicrobial activity against Pseudomonas aeruginosa 339 after 18 hrs by microbroth dilution method; assay type: functional; conditions: Pseudomonas aeruginosa, 339, 18 h
[23] = system: Enterococcus faecium; experiment: Antimicrobial activity against vancomycin-resistant Enterococcus faecium 379 after 18 hrs by microbroth dilution method; assay type: functional; conditions: Enterococcus faecium, 379, 18 h
[24] = system: Escherichia coli; experiment: Inhibition of protein synthesis in Escherichia coli assessed as incorporation of [3H]amino acid at 32 ug/mL by LKB Betaplate scintillation counter relative to control; assay type: functional; set-up: scale not given: the % may be the effect or the level left
[25] = system: Candida albicans; experiment: Antimicrobial activity against Candida albicans 54 after 18 hrs by microbroth dilution method; assay type: functional; conditions: Candida albicans, 54, 18 h
[26] = system: Escherichia coli; experiment: Inhibition of RNA synthesis in Escherichia coli assessed as incorporation of [3H]uridine at 32 ug/mL by LKB Betaplate scintillation counter relative to control; assay type: functional; set-up: scale not given: the % may be the effect or the level left
[27] = system: Escherichia coli; experiment: Inhibition of RNA synthesis in Escherichia coli assessed as incorporation of [3H]uridine at 16 ug/mL by LKB Betaplate scintillation counter relative to control; assay type: functional; set-up: scale not given: the % may be the effect or the level left
[28] = system: Staphylococcus aureus; experiment: Antimicrobial activity against Staphylococcus aureus after 18 hrs by micro-broth dilution method; assay type: functional
[29] = system: Escherichia coli; experiment: Inhibition of RNA synthesis in Escherichia coli assessed as incorporation of [3H]uridine at 25 ug/mL by LKB Betaplate scintillation counter relative to control; assay type: functional; set-up: scale not given: the % may be the effect or the level left
[30] = system: Escherichia coli; experiment: Inhibition of DNA synthesis in Escherichia coli assessed as incorporation of [3H]thymidine at 25 ug/mL by LKB Betaplate scintillation counter relative to control; assay type: functional; set-up: scale not given: the % may be the effect or the level left
[31] = system: Escherichia coli; experiment: Inhibition of protein synthesis in Escherichia coli assessed as incorporation of [3H]amino acid at 25 ug/mL by LKB Betaplate scintillation counter relative to control; assay type: functional; set-up: scale not given: the % may be the effect or the level left
[32] = system: Escherichia coli; experiment: Inhibition of RNA synthesis in Escherichia coli assessed as incorporation of [3H]uridine at 0.25 ug/mL by LKB Betaplate scintillation counter relative to control; assay type: functional; set-up: scale not given: the % may be the effect or the level left
[33] = system: Escherichia coli; experiment: Inhibition of DNA synthesis in Escherichia coli assessed as incorporation of [3H]thymidine at 0.25 ug/mL by LKB Betaplate scintillation counter relative to control; assay type: functional; set-up: scale not given: the % may be the effect or the level left
[34] = system: Escherichia coli; experiment: Inhibition of protein synthesis in Escherichia coli assessed as incorporation of [3H]amino acid at 0.25 ug/mL by LKB Betaplate scintillation counter relative to control; assay type: functional; set-up: scale not given: the % may be the effect or the level left
[35] = system: Staphylococcus aureus; experiment: Antimicrobial activity against Staphylococcus aureus infected in CD1 mouse administered single oral dose after 7 days; assay type: functional; conditions: 168 h
[36] = system: Staphylococcus aureus; experiment: Antimicrobial activity against Staphylococcus aureus infected in CD1 mouse administered subcutaneously after 30 mins infection measured after 7 days; assay type: functional; conditions: sc
[37] = Ratio of LD50 for CD1 mouse to ED50 for Staphylococcus aureus infected in single subcutaneously dosed CD1 moue

For `CC(C)=CCC[C@@H](C)c1ccc(O)c(C)c1`, the MIC [1] was 16 µg/mL (≈ 73.3 µM), the MIC [2] was 32 µg/mL (≈ 147 µM) and the MIC [3] was 16 µg/mL (≈ 73.3 µM). For the same molecule, the MIC [4] was 16 µg/mL (≈ 73.3 µM), the Activity [5] was 75.57% and the Activity [6] was 48.24%. The MIC [7] was 16 µg/mL (≈ 73.3 µM), the Activity [8] was 39.06% and the Activity [9] was 68%. For the same molecule, the Activity [10] was 37.82%, the MIC [11] was greater than 128 µg/mL and the Activity [12] was 52.28%. The Activity [13] was 66.73%, the Activity [14] was 63.06% and the MIC [15] was 32 µg/mL (≈ 147 µM). The Activity [16] was 34.04%, the Activity [17] was 25.34% and the Activity [18] was 39.08%. It also gave an Activity [19] of 30.71%, an MIC [20] of 32 µg/mL (≈ 147 µM) and an MIC [21] greater than 128 µg/mL. For the same molecule, the MIC [22] was greater than 128 µg/mL, the MIC [23] was 16 µg/mL (≈ 73.3 µM) and the Activity [24] was 44.2%. The MIC [25] was 128 µg/mL (≈ 586 µM), the Activity [26] was 50.02% and the Activity [27] was 60.35%.
`C[C@@]12C[C@@]34CC[C@H]5[C@@](C)(CCC[C@]5(C)C(=O)O)[C@@H]3C[C@H]1[C@H]2C4` showed an MIC [28] of 128 µg/mL (≈ 423 µM).
`O=C(N[C@H](CO)[C@H](O)c1ccc([N+](=O)[O-])cc1)C(Cl)Cl` [CHLORAMPHENICOL] showed an Activity [29] of 85.76%, an Activity [30] of 82.98% and an Activity [31] of 18.96%.
Molecule `CC1(C)S[C@@H]2[C@H](NC(=O)Cc3ccccc3)C(=O)N2[C@H]1C(=O)O` [PENICILLIN G] has an MIC [1] of 0.06 µg/mL (≈ 0.179 µM), an MIC [2] of 128 µg/mL (≈ 383 µM) and an MIC [3] of 0.06 µg/mL (≈ 0.179 µM). It also gave an MIC [4] of 32 µg/mL (≈ 95.7 µM), an MIC [7] of 32 µg/mL (≈ 95.7 µM) and an MIC [11] of 128 µg/mL (≈ 383 µM). The MIC [15] was 2 µg/mL (≈ 5.98 µM), the MIC [20] was 64 µg/mL (≈ 191 µM) and the MIC [22] was greater than 128 µg/mL. For the same molecule, the MIC [23] was 32 µg/mL (≈ 95.7 µM) and the MIC [25] was greater than 128 µg/mL.
`CO[C@H]1/C=C/O[C@@]2(C)Oc3c(C)c(O)c4c(O)c(c(/C=N/N5CCN(C)CC5)c(O)c4c3C2=O)NC(=O)/C(C)=C\C=C\[C@H](C)[C@H](O)[C@@H](C)[C@@H](O)[C@@H](C)[C@H](OC(C)=O)[C@@H]1C` [RIFAMPIN] gave an Activity [32] of 1.17%, an Activity [33] of 89.56% and an Activity [34] of 27.82%.
For `CN[C@H](CC(C)C)C(=O)N[C@H]1C(=O)N[C@@H](CC(N)=O)C(=O)N[C@H]2C(=O)N[C@H]3C(=O)N[C@H](C(=O)N[C@H](C(=O)O)c4cc(O)cc(O)c4-c4cc3ccc4O)[C@H](O)c3ccc(c(Cl)c3)Oc3cc2cc(c3O[C@@H]2O[C@H](CO)[C@@H](O)[C@H](O)[C@H]2O[C@H]2C[C@](C)(N)[C@H](O)[C@H](C)O2)Oc2ccc(cc2Cl)[C@H]1O` [VANCOMYCIN], the ED50 [35] was 230 mg/kg, the ED50 [36] was 1 mg/kg and the “Ratio LD50/ED50” value [37] was greater than 1000.
`CC(C)=CCC[C@@H](C)c1ccc(C)c(O)c1` [XANTHORRIZOL] showed an MIC [1] of 16 µg/mL (≈ 73.3 µM), an MIC [2] of 32 µg/mL (≈ 147 µM) and an MIC [3] of 16 µg/mL (≈ 73.3 µM). The MIC [4] was 16 µg/mL (≈ 73.3 µM), the Activity [5] was 95.33% and the Activity [6] was 35.75%. For the same molecule, the ED50 [36] was greater than 32 mg/kg, the MIC [7] was 16 µg/mL (≈ 73.3 µM) and the Activity [8] was 23.39%. The Activity [9] was 102.1%, the Activity [10] was 7.03% and the MIC [11] was greater than 128 µg/mL. It also gave an Activity [12] of 96.92%, an Activity [13] of 96.87% and an Activity [14] of 99.98%. The MIC [15] was 32 µg/mL (≈ 147 µM), the Activity [16] was 1.91% and the Activity [17] was 17.12%. It also gave an Activity [18] of 8.72%, an Activity [19] of 1.52% and an MIC [20] of 32 µg/mL (≈ 147 µM). It also gave an MIC [21] greater than 128 µg/mL, an MIC [22] greater than 128 µg/mL and an MIC [23] of 16 µg/mL (≈ 73.3 µM). The Activity [24] was 33.57%, the MIC [25] was 128 µg/mL (≈ 586 µM) and the Activity [26] was 48.56%. For the same molecule, the Activity [27] was 91.13%.
